Where two headings read alike, the source gives them in different places.
What was measured:
Chinese white rabbits [1] = test: Wound healing, scar area; assay type: in vivo, rabbit; settings: 5% aqueous solution applied to the nearby area of wounds, vs control rabbits
From the text: 25 Chinese white rabbits were divided into 5 groups and hairs on the back of rabbits were removed (5×5 cm^2).

rats = test: Antipyretic activity, E. coli suspension as pyrogen; assay type: in vivo; settings: in °C (unit assumed)
Description: Rats are administered with sterilized E. coli suspension as a pyrogen. Each group of rats are administered with a prodrug compounds or parent compounds at a dosage specified below. The prodrug compounds are administered either orally or transdermally. The parent compounds are administered orally.

human skin tissue [2] = test: In vitro penetration rate through human skin, modified Franz cells; settings: Franz cell; for In vitro penetration rate (apparent flux), prodrug compounds: 20% solution in 0.2 M phosphate buffer pH 7.4, human skin
[3] = Plasma levels after transdermal administration to hairless mice; assay type: in vivo
Description: Tested compounds (20% solution or suspension in 1 mL isopropanol) are administered transdermally to the skin of intact hairless mice. The plasma levels of the parent compounds are determined by HPLC.

mice = test: Analgesic activity, acetic acid writhing; assay type: in vivo
Description: The prodrug compounds are administered either transdermally or orally. The parent compounds are administered orally. The number of writhing that occurred when mice are administered the acetic acid solution are counted, and the rate of inhibition based on the control group which was not pretreated with any test compounds is calculated. […] The A group is the control group.

Chinese white rabbits [4] = test: Malassezia-induced lesions similar to psoriasis; assay type: in vivo, rabbit; settings: 5% aqueous solution twice per day, 10 days after application
From the text: Heavy suspensions of Malassezia [Rosenberg, E. W., et al., Mycopathologia, 72, 147-154 (1980)] were applied to the shaved skin on the backs of the Chinese white rabbits (n=4×6) twice (at 7 am and 7 pm) per day for 2 weeks, lesions similar to psoriasis resulted.

human skin tissue [5] = settings: pH 7.4
[6] = Solubility in water / aqueous solubility of HPPs and parent drugs; settings: medium not given
[7] = 100 mg/kg transdermally, 30 min before acetic acid
[8] = transdermal, 20% in 1 mL isopropanol, hairless mice
[9] = 100 mg/kg transdermally, 60 minutes before acetic acid
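Throughout, for LD50 of HPP: acute toxicity in rats expressed as LD50, determined for both prodrugs and their parent compounds.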

Compound	average scar area (Chinese white rabbits [1])	LD50 of HPP (rat; rats) [mg/kg]	body temperature, t = 0 min (rats; 100 mg/kg transdermally)	body temperature, t = 90 min (rats; 100 mg/kg transdermally)	body temperature, t = 180 min (rats; 100 mg/kg transdermally)	body temperature, t = 270 min (rats; 100 mg/kg transdermally)	lesions similar to psoriasis (Chinese white rabbits [4])	Peak plasma concentration of parent compound after prodrug compound ([3]; mouse, in vivo) [mg/L]	t, time to peak plasma level of parent compound after prodrug compound ([3]; mouse, in vivo) [min]	% (rate of writhing inhibition) (mice; [7]) [%]	No. of Writhing (mice; [7])	other results
CC(C)Cc1ccc(C(C)C(=O)OCC2CCCNC2)cc1.Cl (centres unmarked) [3-piperidinemethyl 2-(ρ-isobutylphenyl) propionate.HCl]	only a third of that of the control rabbits	–	–	–	–	–	–	–	–	–	–	–
CC(C(=O)O)c1cccc(C(=O)c2ccccc2)c1 (centres unmarked) [Ketoprofen, 2-(3-benzoylphenyl) propionic acid, reference compound]	–	–	–	–	–	–	–	–	–	–	–	body temperature, t = 0 min (rats; 50 mg/kg orally): 37.25 ± 0.06; body temperature, t = 90 min (rats; 50 mg/kg orally): 36.81 ± 0.05; body temperature, t = 180 min (rats; 50 mg/kg orally): 36.82 ± 0.08; body temperature, t = 270 min (rats; 50 mg/kg orally): 36.78 ± 0.07; In vitro penetration rate (apparent flux), parent compounds (human skin tissue [2]; 20% suspension in 0.2 M phosphate buffer pH 7.4, human skin, detection limit 1): <1 μg/cm^2/h; t, time to peak plasma level after parent compound ([3]; parent compound administered (time when taken orally)): 1 to 2 h; Peak plasma concentration after parent compound ([3]; parent compound administered, hairless mice): 1 mg/L; No. of Writhing (mice; 50 mg/kg orally, 30 min before acetic acid): 18.1; inhibition at 50 mg/kg (mice; Mus musculus, po, 50 mg/kg orally, 30 min before acetic acid, read-out: % (rate of writhing inhibition)): 48%
CC(=O)O.CCc1cccc2c3c([nH]c12)C(CC)(CC(=O)OCCN(CC)CC)OCC3 (centres unmarked) [diethylaminoethyl 1,8-diethyl-1,3,4,9-tetrahydropyrano-[3,4-b]indole-1-acetate.AcOH]	–	600	37.23 ± 0.06	36.65 ± 0.06	36.58 ± 0.08	36.60 ± 0.07	the lesions were resolved	20	50	60	14.0	In vitro penetration rate (apparent flux), prodrug compounds (human skin tissue [5]): 1300 μg/cm^2/h
CCc1cccc2c3c([nH]c12)C(CC)(CC(=O)OCCN(CC)CC)OCC3.Cl (centres unmarked) [diethylaminoethyl 1,8-diethyl-1,3,4,9-tetrahydropyrano-[3,4-b]indole-1-acetate.HCl]	only a third of that of the control rabbits	–	–	–	–	–	–	–	–	–	–	–
CC(=O)O.CCN(CC)CCOC(=O)COC(=O)Cc1c(C)n(C(=O)c2ccc(Cl)cc2)c2ccc(OC)cc12 [diethylaminoethyl 1-(4-chlorobenzoyl-5-methoxy-2-methyl-1H-indole-3-acetoxyacetate.AcOH]	–	–	37.21 ± 0.06	36.75 ± 0.05	36.62 ± 0.08	36.58 ± 0.07	the lesions were resolved	20	50	55	15.6	LD50 of HPP (rat; rat, in vivo): 1200 mg/kg; In vitro penetration rate (apparent flux), prodrug compounds (human skin tissue [5]): 1200 μg/cm^2/h
CCN(CC)CCOC(=O)COC(=O)Cc1c(C)n(C(=O)c2ccc(Cl)cc2)c2ccc(OC)cc12.Cl [diethylaminoethyl 1-(4-chlorobenzoyl-5-methoxy-2-methyl-1H-indole-3-acetoxyacetate.HCl]	only a third of that of the control rabbits	–	–	–	–	–	–	–	–	–	–	–
CCN(CC)CCOC(=O)Cc1ccc(C(=O)c2ccc(C)cc2)n1C.Cl [diethylaminoethyl 1-methyl-5-(4-methylbenzoyl)-1H-pyrrole-2-acetate.HCl]	only a third of that of the control rabbits	–	–	–	–	–	–	–	–	–	–	–
CC(=O)O.CCN(CC)CCOC(=O)c1ccccc1Nc1cccc(C(F)(F)F)c1 [diethylaminoethyl 2-[[(3-(trifluoromethyl)phenyl)amino]benzoate.AcOH]	–	800	37.27 ± 0.06	36.76 ± 0.05	36.65 ± 0.08	36.49 ± 0.07	–	–	–	–	–	In vitro penetration rate (apparent flux), prodrug compounds (human skin tissue [2]): 2200 μg/cm^2/h; Solubility of HPP [6]: >400 mg/mL; Peak plasma concentration of parent compound after prodrug compound [3, 8]: 20 mg/L; t, time to peak plasma level of parent compound after prodrug compound [3, 8]: 50 min; % (rate of writhing inhibition) (mice; [9]): 54%; No. of Writhing (mice; [9]): 16.1
CC(=O)O.CCN(CC)CCOC(=O)Cc1cccc(C(=O)c2ccc(Br)cc2)c1N [diethylaminoethyl 2-amino-3-(4-bromo-benzoyl)benzeneacetate.AcOH]	–	1600	37.25 ± 0.06	36.71 ± 0.05	36.65 ± 0.08	36.64 ± 0.07	the lesions were resolved	20	50	62	13.2	In vitro penetration rate (apparent flux), prodrug compounds (human skin tissue [5]): 1100 μg/cm^2/h
CCN(CC)CCOC(=O)Cc1cccc(C(=O)c2ccc(Br)cc2)c1N.Cl [diethylaminoethyl 2-amino-3-(4-bromo-benzoyl)benzeneacetate.HCl]	only a third of that of the control rabbits	–	–	–	–	–	–	–	–	–	–	–
CC(=O)O.CCN(CC)CCOC(=O)Cc1cn(-c2ccccc2)nc1-c1ccc(Cl)cc1 [diethylaminoethyl 3-(4-chlorophenyl)-1-phenyl-1H-pyrazole-4-acetate.AcOH]	–	1200	37.22 ± 0.07	36.82 ± 0.06	36.80 ± 0.05	36.77 ± 0.08	the lesions were resolved	20	50	57	15.2	–
CCN(CC)CCOC(=O)Cc1cn(-c2ccccc2)nc1-c1ccc(Cl)cc1.Cl [diethylaminoethyl 3-(4-chlorophenyl)-1-phenyl-1H-pyrazole-4-acetate.HCl]	only a third of that of the control rabbits	–	–	–	–	–	–	–	–	–	–	–
C=CCOc1ccc(CC(=O)OCCN(CC)CC)cc1Cl.CC(=O)O [diethylaminoethyl 3-chloro-4-(2-propenyloxy)benzeneacetate.AcOH]	–	3000	37.23 ± 0.07	36.80 ± 0.06	36.70 ± 0.05	36.67 ± 0.08	the lesions were resolved	20	50	55	15.7	In vitro penetration rate (apparent flux), prodrug compounds (human skin tissue [5]): 1000 μg/cm^2/h
C=CCOc1ccc(CC(=O)OCCN(CC)CC)cc1Cl.Cl [diethylaminoethyl 3-chloro-4-(2-propenyloxy)benzeneacetate.HCl]	only a third of that of the control rabbits	–	–	–	–	–	–	–	–	–	–	–
CC(=O)O.CCN(CC)CCOC(=O)Cc1sc(-c2ccccc2)nc1-c1ccc(Cl)cc1 [diethylaminoethyl 4-(4-chlorophenyl)-2-phenyl-5-thiazoleacetate.AcOH]	–	1200	37.23 ± 0.06	36.81 ± 0.05	36.75 ± 0.08	36.71 ± 0.07	the lesions were resolved	20	50	54	16.1	In vitro penetration rate (apparent flux), prodrug compounds (human skin tissue [5]): 1300 μg/cm^2/h
CCN(CC)CCOC(=O)Cc1sc(-c2ccccc2)nc1-c1ccc(Cl)cc1.Cl [diethylaminoethyl 4-(4-chlorophenyl)-2-phenyl-5-thiazoleacetate.HCl]	only a third of that of the control rabbits	–	–	–	–	–	–	–	–	–	–	–
CCN(CC)CCOC(=O)Cc1cc(C)c(C(=O)c2ccc(Cl)cc2)n1C.Cl [diethylaminoethyl 5-(4-Chlorobenzoyl)-1,4-dimethyl-1H-pyrrole-2-acetate.HCl]	only a third of that of the control rabbits	–	–	–	–	–	–	–	–	–	–	–
CC(=O)O.CCN(CC)CCOC(=O)C(C)c1c(C)n(C(=O)c2ccc(Cl)cc2)c2ccc(OC)cc12 (stereo not drawn) [diethylaminoethyl α-methyl-(p-chlorobenzoyl)-5-methoxy-2-methylindole 3-acetate.AcOH]	–	–	37.35 ± 0.06	36.71 ± 0.05	36.60 ± 0.08	36.59 ± 0.07	–	–	–	61	13.8	In vitro penetration rate (apparent flux), prodrug compounds (human skin tissue [2]): 4000 μg/cm^2/h; Solubility of HPP [6]: >450 mg/mL; Peak plasma concentration of parent compound after prodrug compound [3, 8]: 2000 mg/L; t, time to peak plasma level of parent compound after prodrug compound [3, 8]: 50 min
